For assay [1], the target named is T1, isocitrate lyase (ICL) (Candida albicans, UniProt Q9P8Q7).
T1 construct: gene ICL1
In words: positive control in enzyme assay with purified ICL, glyoxylate phenylhydrazone formation at […] nm. Format: biochemical.

The target of assay [2] is T1, isocitrate lyase (ICL). Put plainly: enzyme assay with purified ICL, glyoxylate phenylhydrazone formation at […] nm. The assay is classed as biochemical.

T1 sequence (Q9P8Q7 whole entry): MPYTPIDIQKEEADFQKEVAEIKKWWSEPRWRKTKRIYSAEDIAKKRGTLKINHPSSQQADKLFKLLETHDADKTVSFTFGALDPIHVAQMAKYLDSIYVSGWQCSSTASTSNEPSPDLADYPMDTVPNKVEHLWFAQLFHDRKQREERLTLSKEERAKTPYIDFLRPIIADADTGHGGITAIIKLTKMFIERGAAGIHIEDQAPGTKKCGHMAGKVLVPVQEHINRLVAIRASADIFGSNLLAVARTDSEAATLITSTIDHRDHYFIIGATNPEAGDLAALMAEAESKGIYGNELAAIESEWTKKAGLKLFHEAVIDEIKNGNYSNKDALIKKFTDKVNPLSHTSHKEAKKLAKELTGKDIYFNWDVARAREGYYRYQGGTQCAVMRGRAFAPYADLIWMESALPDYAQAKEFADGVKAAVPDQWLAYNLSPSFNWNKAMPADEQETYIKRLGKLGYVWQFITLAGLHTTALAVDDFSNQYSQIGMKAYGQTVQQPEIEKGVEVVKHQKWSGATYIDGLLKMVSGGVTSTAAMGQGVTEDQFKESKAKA

`O=C(O)CC[N+](=O)[O-]` [3-Nitropropionic acid] yielded an IC50 against isocitrate lyase (ICL) [1] of 11.3 µM. Regarding `C=C[C@@H](O)[C@H](O)/C=C/C=C/C=C/C=C/[C@@H](O)[C@@H](C)O` [compound 1, Separacene A], the IC50 against isocitrate lyase (ICL) [2] came out at 172 µM.

The values are drawn from paper PMC3766871, “Separacenes A–D, Novel Polyene Polyols from the Marine Actinomycete, Streptomyces sp” (Marine Drugs, 2013).
